# Data as given in US20070219212A1, “Pyranouidole Derivatives and the Use Thereof for the Treatment of Hepatitis C Virus Infection or Disease” (priority 2004, published 2007).
# Where two headings read alike, the source gives them in different places.
# Tests used:
# [1] = target: T1, NS5B from the BK strain (genotype 1b) (Hepatitis C virus genotype 1b, UniProt P26663); assay: Hepatitis C polymerase (NS5B, BK strain) inhibition, radioactive filter assay; assay type: biochemical; settings: NS5B BK strain (genotype 1b)
# T1 construct: NS5B from the BK strain (genotype 1b) is expressed in E coli as a protein in which the 21 C-terminal amino acids are replaced; made in house; host or cells: E. coli
# Summary of the method: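 E. coli-expressed C-terminally truncated His-tagged NS5B preincubated 15 min with compound at room temperature, then run 2 h at 22-25 °C on a hairpin-primed heteropolymeric RNA template (~3 nM) with radioactive nucleotides. EDTA stop; ~760 nt 33P product captured on filters, washed with phosphate buffer pH 7.0, scintillation counted.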
# [2] = target: BB7 RNA-dependent RNA polymerase hepatitis C virus protein (Con1 HCV sequence) (Hepatitis C virus genotype 1b, UniProt Q9WMX2); assay: Hepatitis C polymerase (BB7) inhibition; assay type: biochemical
# Summary of the method: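 Con1 (BB7) replicon-derived NS5B polymerase preincubated with compound (15% DMSO) 15 min at room temperature, then RNA template (~3 nM pOF) and nucleotides added. Reaction run 2 h at 22-25° C., stopped with EDTA (85 mM final). ^33P-labelled product captured on filters, washed with 0.5 M sodium phosphate pH 7.0, scintillation counted.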
# [3] = BB7 (Con1) NS5B, read-out: BB7 IC50
# T1 sequence (P26663 2420-2989): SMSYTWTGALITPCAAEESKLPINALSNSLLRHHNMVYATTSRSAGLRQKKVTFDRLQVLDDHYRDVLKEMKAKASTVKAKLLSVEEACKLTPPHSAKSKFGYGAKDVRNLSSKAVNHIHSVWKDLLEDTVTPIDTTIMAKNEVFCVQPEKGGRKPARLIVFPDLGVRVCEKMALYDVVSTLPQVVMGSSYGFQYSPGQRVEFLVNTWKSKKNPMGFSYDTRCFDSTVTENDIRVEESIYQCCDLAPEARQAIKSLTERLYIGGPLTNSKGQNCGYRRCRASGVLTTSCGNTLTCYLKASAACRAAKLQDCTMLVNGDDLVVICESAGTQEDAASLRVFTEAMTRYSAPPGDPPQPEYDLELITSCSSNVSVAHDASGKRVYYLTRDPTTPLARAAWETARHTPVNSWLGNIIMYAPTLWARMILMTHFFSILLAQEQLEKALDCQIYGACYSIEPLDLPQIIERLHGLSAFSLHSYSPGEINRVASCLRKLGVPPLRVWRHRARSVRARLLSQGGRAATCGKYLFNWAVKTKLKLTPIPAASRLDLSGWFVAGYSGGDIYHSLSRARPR
# Sequence of BB7 RNA-dependent RNA polymerase hepatitis C virus protein (Con1 HCV sequence) (Q9WMX2 2420-3010): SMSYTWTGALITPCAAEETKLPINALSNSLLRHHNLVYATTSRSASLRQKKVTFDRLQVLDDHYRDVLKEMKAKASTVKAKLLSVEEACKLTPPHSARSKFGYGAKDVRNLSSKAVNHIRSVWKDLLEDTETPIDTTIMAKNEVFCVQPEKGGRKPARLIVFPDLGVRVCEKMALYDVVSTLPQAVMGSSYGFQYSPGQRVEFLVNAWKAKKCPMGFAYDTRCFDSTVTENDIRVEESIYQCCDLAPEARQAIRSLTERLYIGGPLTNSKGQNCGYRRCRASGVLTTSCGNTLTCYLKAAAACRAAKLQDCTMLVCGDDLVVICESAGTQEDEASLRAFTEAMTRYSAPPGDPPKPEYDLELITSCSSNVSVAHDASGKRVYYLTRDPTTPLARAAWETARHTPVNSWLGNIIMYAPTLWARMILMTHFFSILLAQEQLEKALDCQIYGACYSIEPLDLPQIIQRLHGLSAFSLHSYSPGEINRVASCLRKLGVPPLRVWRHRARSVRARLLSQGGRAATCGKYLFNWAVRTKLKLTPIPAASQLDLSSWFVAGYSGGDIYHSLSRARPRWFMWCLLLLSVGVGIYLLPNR
Structure (SMILES),IC50 [1] [µM],IC50 [2] [µM],"IC50 [2, 3] [µM]","IC50 ([2]; read-out: BB7 IC50, BB7 (Con1) NS5B) [µM]"
"CCCC1(CC(=O)O)OCCc2c1[nH]c1c(C)c(COCC)cc(C#N)c21 (centres unmarked) [Example 3, (5-Cyano-7-ethoxymethyl-8-methyl-1-propyl-1,3,4,9-tetrahydro-pyrano[3,4-b]indo-1-yl)-acetic acid]",0.5 to 5,< 0.5,,
CCCC1(CC(=O)O)OCCc2c1[nH]c1c(C)c(OCC3CCNCC3)cc(C#N)c21 (centres unmarked) [Example 74],< 0.5,< 0.5,,
CCCC1(CC(=O)O)OCCc2c1[nH]c1c(C)c(OCCCc3cc(C)on3)cc(C#N)c21 (centres unmarked) [Example 135],< 0.5,< 0.5,,
"CCCC1(CC(=O)O)OCCc2c1[nH]c1c(C)c(COCc3sc(C)nc3C)cc(C#N)c21 (centres unmarked) [Example 19, [5-Cyano-7-(2,4-dimethyl-thiazol-5-ylmethoxymethyl)-8-methyl-1-propyl-1,3,4,9-tetrahydro-pyrano[3,4-b]indol-1-yl]-acetic acid]",0.5 to 5,0.5 to 5,,
CCCC1(CC(=O)O)OCCc2c1[nH]c1c(C)c(OCc3c[nH]cn3)cc(C#N)c21 (centres unmarked) [Example 76],< 0.5,,< 0.5,
CCCC1(CC(=O)O)OCCc2c1[nH]c1c(C)c(OCCCOC)cc(C#N)c21 (centres unmarked) [Example 119],< 0.5,< 0.5,,
CCCC1(CC(=O)O)OCCc2c1[nH]c1c(C)c(OCc3ccncc3)cc(C#N)c21 (centres unmarked) [Example 38],< 0.5,,,< 0.5
CCCC1(CC(=O)O)OCCc2c1[nH]c1c(C)c(OCC(C)=O)cc(C#N)c21 (centres unmarked) [Example 98],0.5 to 5,< 0.5,,
CCCC1(CC(=O)O)OCCc2c1[nH]c1c(C)c(OCC3CCN(S(C)(=O)=O)CC3)cc(C#N)c21 (centres unmarked) [Example 122],< 0.5,< 0.5,,
CCCC1(CC(=O)O)OCCc2c1[nH]c1c(C)c(OCc3cc(C)[nH]n3)cc(C#N)c21 (centres unmarked) [Example 128],< 0.5,< 0.5,,
CCCC1(CC(=O)O)OCCc2c1[nH]c1c(C)c(OCc3ccnc(COC)c3)cc(C#N)c21 (centres unmarked) [Example 94],< 0.5,,< 0.5,
"CCC[C@]1(CC(=O)O)OCCc2c1[nH]c1c(C)c(OCc3nnc(C)s3)cc(C#N)c21 [Example 29, (R)-[5-Cyano-8-methyl-7-(5-methyl-[1,3,4]thiadiazol-2-ylmethoxy)-1-propyl-1,3,4,9-tetrahydro-pyrano[3,4-b]indol-1-yl]-acetic acid]",< 0.5,< 0.5,,
"CCCOCc1cc(C#N)c2c3c([nH]c2c1C)C(CCC)(CC(=O)O)OCC3 (centres unmarked) [Example 4, (5-Cyano-8-methyl-7-propoxymethyl-1-propyl-1,3,4,9-tetrahydro-pyrano[3,4-b]indol-1-yl)-acetic acid]",0.5 to 5,< 0.5,,
CCCC1(CC(=O)O)OCCc2c1[nH]c1c(C)c(OCCC3CC3)cc(C#N)c21 (centres unmarked) [Example 48],< 0.5,< 0.5,,
CCCC1(CC(=O)O)OCCc2c1[nH]c1c(C)c(OCc3cccc(N)n3)cc(C#N)c21 (centres unmarked) [Example 59],< 0.5,< 0.5,,
"CCCC1(CC(=O)O)OCCc2c1[nH]c1c(C)c(COCc3ccsc3)cc(C#N)c21 (centres unmarked) [Example 18, [5-Cyano-8-methyl-1-propyl-7-(thiophen-3-ylmethoxymethyl)-1,3,4,9-tetrahydro-pyrano[3,4-b]indol-1-yl]-acetic acid]",0.5 to 5,< 0.5,,
CCCC1(CC(=O)O)OCCc2c1[nH]c1c(C)c(OCc3ccn(CC)n3)cc(C#N)c21 (centres unmarked) [Example 137],< 0.5,< 0.5,,
CCCC1(CC(=O)O)OCCc2c1[nH]c1c(C)c(OCc3cc(C(F)(F)F)n(C)n3)cc(C#N)c21 (centres unmarked) [Example 126],< 0.5,< 0.5,,
CCCC1(CC(=O)O)OCCc2c1[nH]c1c(C)c(OCc3ccnc(NS(C)(=O)=O)c3)cc(C#N)c21 (centres unmarked) [Example 96],< 0.5,< 0.5,,

Structure (SMILES),IC50 [1] [µM],IC50 [2] [µM],"IC50 [2, 3] [µM]","IC50 ([2]; read-out: BB7 IC50, BB7 (Con1) NS5B) [µM]"
CCCC1(CC(=O)O)OCCc2c1[nH]c1c(C)c(OCCOC)cc(C#N)c21 (centres unmarked) [Example 43],< 0.5,< 0.5,,
"CCCC1(C(=O)O)OCCc2c1[nH]c1c(C)c(OCc3cc(C)on3)cc(C#N)c21 (centres unmarked) [Example 32, 5-Cyano-8-methyl-7-(5-methyl-isoxazol-3-ylmethoxy)-1-propyl-1,3,4,9-tetrahydro-pyrano[3,4,-b]indole-1-carboxylic acid]",< 0.5,< 0.5,,
"CC[C@H](C)C1(CC(=O)O)OCCc2c1[nH]c1c(C)c(OCc3nsc(N(C)C)n3)cc(C#N)c21 (mixture of isomers) [Example 35, (1R*,10S)-[1-sec-Butyl-5-cyano-7-(5-dimethylamino-[1,2,4]thiadiazol-3-ylmethoxy)-8-methyl-1,3,4,9-tetrahydro-pyrano[3,4-b]indol-1-yl]-acetic acid]",< 0.5,< 0.5,,
CCCC1(CC(=O)O)OCCc2c1[nH]c1c(C)c(OC[C@@H](C)OC)cc(C#N)c21 (some centres unmarked) [Example 141],< 0.5,< 0.5,,
CCCC1(CC(=O)O)OCCc2c1[nH]c1c(C)c(OCCN3CCCC3)cc(C#N)c21 (centres unmarked) [Example 58],0.5 to 5,0.5 to 5,,
CCCC1(CC(=O)O)OCCc2c1[nH]c1c(C)c(OCc3nsc(OCC)n3)cc(C#N)c21 (centres unmarked) [Example 134],< 0.5,,< 0.5,
CCCC1(CC(=O)O)OCCc2c1[nH]c1c(C)c(OCc3nnc(C)s3)cc(C#N)c21 (centres unmarked) [Example 133],< 0.5,< 0.5,,
CCCC1(CC(=O)O)OCCc2c1[nH]c1c(C)c(OCc3cc(C)n(C)n3)cc(C#N)c21 (centres unmarked) [Example 78],< 0.5,< 0.5,,
CCC[C@@]1(CC(=O)O)OCCc2c1[nH]c1c(C)c(O)cc(C#N)c21 [Example 47],> 5,0.5 to 5,,
CCCC1(CC(=O)O)OCCc2c1[nH]c1c(C)c(OCCCS(C)(=O)=O)cc(C#N)c21 (centres unmarked) [Example 143],< 0.5,,< 0.5,
CCCC1(CC(=O)O)OCCc2c1[nH]c1c(C)c(OCc3ccn(C)n3)cc(C#N)c21 (centres unmarked) [Example 82],< 0.5,< 0.5,,
"CCCC1(CC(=O)O)OCCc2c1[nH]c1c(C)c(CO[C@H]3CCOC3)cc(C#N)c21 (mixture of isomers) [Example 13, (3′S,1S*)[5-Cyano-8-methyl-1-propyl-7-(tetrahydro-furan-3-yloxymethyl)-1,3,4,9-tetrahydro-pyrano[3,4-b]indol-1-yl]-acetic acid]",0.5 to 5,0.5 to 5,,
"CCCC1(CC(=O)O)OCCc2c1[nH]c1c(C)c(OCC3CC3)cc(C#N)c21 (centres unmarked) [Example 22, (5-Cyano-7-cyclopropylmethoxy-8-methyl-1-propyl-1,3,4,9-tetrahydro-pyrano[3,4-b]indol-1-yl)-acetic acid]",< 0.5,< 0.5,,
CCCC1(CC(=O)O)OCCc2c1[nH]c1c(C)c(OCc3noc(C(C)(C)C)n3)cc(C#N)c21 (centres unmarked) [Example 88],< 0.5,< 0.5,,
CCCC1(CC(=O)O)OCCc2c1[nH]c1c(C)c(OCc3nsc(N(C)C)n3)cc(C#N)c21 (centres unmarked) [Example 136],< 0.5,,< 0.5,
CCCC1(CC(=O)O)OCCc2c1[nH]c1c(C)c(OCc3cc(C)n(CC)n3)cc(C#N)c21 (centres unmarked) [Example 140],< 0.5,< 0.5,,
CCCC1(CC(=O)O)OCCc2c1[nH]c1c(C)c(OCCOC(C)C)cc(C#N)c21 (centres unmarked) [Example 112],< 0.5,< 0.5,,
CCCC1(CC(=O)O)OCCc2c1[nH]c1c(C)c(OCc3ccnc(C(C)(C)O)c3)cc(C#N)c21 (centres unmarked) [Example 91],< 0.5,< 0.5,,
